Among the data in ChEMBL document CHEMBL3108752, “Iridal-type triterpenoids with neuroprotective activities from Iris tectorum” (2014) are viability values, retold here.

SMILES strings stand for the structures.

In this assay the test system is PC-12. In words: Neuroprotective activity against serum-deprivation-induced damage in rat PC12 cells assessed as survival rate at 10 uM after 48 hrs by MTT assay relative to control. The class given is functional. To be noted: PC-12, 48 h, read-out: Survival. (Formazan colour is commonly taken as a measure of viable cells.)
On to `CC(C)=CCC/C(C)=C/[C@H]1C=C(CO)[C@@H]2CC[C@]3([C@H](CCCO)/C(=C(/C)C=O)CC[C@]3(C)O)[C@@H]2O1`, for which the viability at 10 µM is 63.8%.
The value for `CC(C)=CCC/C(=C\[C@H]1C=C(CO)[C@@H]2CC[C@]3([C@H](CCCO)/C(=C(\C)C=O)CC[C@]3(C)O)[C@@H]2O1)CO` was 50.9%; that for `CC(C)=CCC/C(=C\[C@H]1C=C(CO)[C@@H]2CC[C@]3([C@H](CCCO)/C(=C(/C)C=O)CC[C@]3(C)O)[C@@H]2O1)CO` was 54.1%.
